Experimental data published in patent publication EP2812315B1, “PYRROLIC DERIVATIVES, PROCESSES FOR PREPARING THE SAME AND THEIR USES AS A DRUG” (Universite Joseph Fourier, priority 2012, dated 2013).
Values after ≈ are worked out from the molar mass of the structure shown.

How the values were obtained:
Assay in all cases: Other MIC determination, microdilution method (CLSI M07-A9) with modifications
Format in all cases: cell-based
[1] = tested on: Staphylococcus warneri (CHUG-Swar3); details: clinical strain
Procedure: (§1) The microdilution method recommended by the Clinical and Laboratory Standard Institute [M07-A9, Vol.32, N°2] was used with the following modifications.
(§2) Bacterial inocula were prepared in Mueller Hinton broth (MH2, BioMérieux, Marcy L'Etoile, France). They were dispensed in 96 well microtiter plates (10^6 CFU/ml of final inoculum, 192 µL per well).
(§3) To avoid cross-contaminations in microtiter plates, one row was left blank between each strain tested. Microplates were incubated for 18h at 37 °C in ambient air. Then MICs were read visually and, in case of visual reading difficulties, confirmed using a spectrophotometer at a wavelength of 630 nm (BioTek® EL808 Absorbance Microplate Reader). MICs corresponded to the minimum pyrrolic compound concentrations that allowed complete visual growth inhibition of bacteria. Drug-free cultures served as growth controls.
(§4) We used four Staphylococcus aureus strains. Two reference strains were provided by the French reference center for Staphylococcus spp. (Lyon, France), including one methicillin-susceptible (MSSA 476) and one methicillin-resistant (MRSA 252) S. aureus strains. The two remaining S. aureus strains were purchased from the CRBIP (Centre de Ressources Biologiques de l'Institut Pasteur): a vancomycin-intermediate strain (ATCC 106414) and a S. aureus strain (SA-1199B) resistant to fluoroquinolones due to overexpression of the NorA multidrug efflux pump. Coagulase-negative Staphylococcus strains included three reference strains purchased from CRBIP: a methicillin-susceptible S. epidermidis strain (ATCC 12228), a methicillin-resistant S. epidermidis strain (ATCC 49461), and a methicillin-susceptible S. sciuri strain (ATCC 29061). We also used 37 clinical strains belonging to the following coagulase-negative Staphylococcus species: S. arlettae (two strains), S. capitis (nine strains), S. epidermidis (one strain), S. haemolyticus (six strains), S. hominis (eight strains), S. lugdunensis (one strain), S. massiliensis (one strain), S. pettenkoferi (two strains), S. saprophyticus (two strains), S. simulans (one strain), and S. warneri (four strains) . Identification of the clinical strains was first obtained using VITEK® 2 System (Biomérieux) and confirmed by amplification and sequencing of the tuf gene (Reference: Bergeron, M., O. Dauwalder, M. Gouy, A.-M. Freydiere, M. Bes, H. Meugnier, Y. Benito, J. Etienne, G. Lina, F. Vandenesch, and S. Boisset. Species identification of staphylococci by amplification and sequencing of the tuf gene compared to the gap gene and by matrix-assisted laser desorption ionization time-of-flight mass spectrometry, Eur. J. Clin. Microbial. Infect. Dis. 2011, 30, 343-354).
(§5) The activity of the pyrrolic compounds 3c and 3i was further tested against 32 clinical strains belonging to 11 coagulase-negative Staphylococcus species.

[2] = tested on: Staphylococcus warneri (CHUG-Swar2); details: clinical strain
Procedure: as §1, §2, §3, §4, §5

[3] = tested on: Staphylococcus capitis (CHUG-Scapi10); details: clinical strain
Procedure: as §1, §2, §3, §4, §5

[4] = tested on: Staphylococcus arlettae (CHUG-Sarl1); details: clinical strain
Procedure: as §1, §2, §3, §4, §5

[5] = tested on: Staphylococcus saprophyticus (CHUG-Ssap1); details: clinical strain
Procedure: as §1, §2, §3, §4, §5

[6] = tested on: Staphylococcus capitis (CHUG-Scapi6); details: clinical strain
Procedure: as §1, §2, §3, §4, §5

[7] = tested on: Staphylococcus capitis (CHUG-Scapi5); details: clinical strain
Procedure: as §1, §2, §3, §4, §5

[8] = tested on: Staphylococcus capitis (CHUG-Scapi7); details: clinical strain
Procedure: as §1, §2, §3, §4, §5

[9] = tested on: Staphylococcus hominis (CHUG-Shom2); details: clinical strain
Procedure: as §1, §2, §3, §4, §5

[10] = tested on: Staphylococcus haemolyticus (CHUG-Shae6)
Procedure: as §1, §2, §3, §4, §5

[11] = tested on: Staphylococcus haemolyticus (CHUG-Shae3)
Procedure: as §1, §2, §3, §4, §5

[12] = tested on: Staphylococcus hominis (CHUG-Shom3); details: clinical strain
Procedure: as §1, §2, §3, §4, §5

[13] = tested on: Staphylococcus hominis (CHUG-Shom6); details: clinical strain
Procedure: as §1, §2, §3, §4, §5

[14] = tested on: Staphylococcus pettenkoferi (CHUG-Spet2); details: clinical strain
Procedure: as §1, §2, §3, §4, §5

[15] = tested on: Staphylococcus epidermidis (CHUG-Sepi1); details: clinical strain
Procedure: as §1, §2, §3, §4, §5

[16] = tested on: Staphylococcus haemolyticus (CHUG-Shae7)
Procedure: as §1, §2, §3, §4, §5

[17] = tested on: Staphylococcus haemolyticus (CHUG-Shae4)
Procedure: as §1, §2, §3, §4, §5

[18] = tested on: Staphylococcus capitis (CHUG-Scapi9); details: clinical strain
Procedure: as §1, §2, §3, §4, §5

[19] = tested on: Staphylococcus simulans (CHUG-Ssim1); details: clinical strain
Procedure: as §1, §2, §3, §4, §5

[20] = tested on: Staphylococcus capitis (CHUG-Scapi4); details: clinical strain
Procedure: as §1, §2, §3, §4, §5

[21] = tested on: Staphylococcus hominis (CHUG-Shom8); details: clinical strain
Procedure: as §1, §2, §3, §4, §5

[22] = tested on: Staphylococcus saprophyticus (CHUG-Ssap2); details: clinical strain
Procedure: as §1, §2, §3, §4, §5

[23] = tested on: Staphylococcus massiliensis (CHUG-Smas1); details: clinical strain
Procedure: as §1, §2, §3, §4, §5

[24] = tested on: Staphylococcus hominis (CHUG-Shom4); details: clinical strain
Procedure: as §1, §2, §3, §4, §5

[25] = tested on: Staphylococcus haemolyticus (CHUG-Shae2)
Procedure: as §1, §2, §3, §4, §5

[26] = tested on: Staphylococcus hominis (CHUG-Shom5); details: clinical strain
Procedure: as §1, §2, §3, §4, §5

[27] = tested on: Staphylococcus capitis (CHUG-Scapi2); details: clinical strain
Procedure: as §1, §2, §3, §4, §5

[28] = tested on: Staphylococcus arlettae (CHUG-Sarl2, meti-R)
Procedure: as §1, §2, §3, §4, §5

[29] = tested on: Staphylococcus hominis (CHUG-Shom7); details: clinical strain
Procedure: as §1, §2, §3, §4, §5

[30] = tested on: Staphylococcus warneri (CHUG-Swar4); details: clinical strain
Procedure: as §1, §2, §3, §4, §5

[31] = tested on: Staphylococcus lugdunensis (CHUG-Slug1); details: clinical strain
Procedure: as §1, §2, §3, §4, §5

[32] = tested on: Staphylococcus capitis (CHUG-Scapi3); details: clinical strain
Procedure: as §1, §2, §3, §4, §5

Compound: CC(=O)c1c(C)[nH]c(C(c2ccc(Cl)cc2)c2[nH]c(C)c(C(C)=O)c2C)c1C [3c]
- MIC [1]: 8 µg/mL (≈ 20.2 µM)
- MIC [2]: 8 µg/mL (≈ 20.2 µM)
- MIC [3]: 8 µg/mL (≈ 20.2 µM)
- MIC [4]: > 32 µg/mL
- MIC [5]: > 32 µg/mL
- MIC [6]: 8 µg/mL (≈ 20.2 µM)
- MIC [7]: 8 µg/mL (≈ 20.2 µM)
- MIC [8]: 8 µg/mL (≈ 20.2 µM)
- MIC [9]: > 32 µg/mL
- MIC [10]: 16 µg/mL (≈ 40.3 µM)
- MIC [11]: 16 µg/mL (≈ 40.3 µM)
- MIC [12]: > 32 µg/mL
- MIC [13]: > 32 µg/mL
- MIC [14]: > 32 µg/mL
- MIC [15]: 8 µg/mL (≈ 20.2 µM)
- MIC [16]: 16 µg/mL (≈ 40.3 µM)
- MIC [17]: 16 µg/mL (≈ 40.3 µM)
- MIC [18]: 8 µg/mL (≈ 20.2 µM)
- MIC [19]: > 32 µg/mL
- MIC [20]: 4 µg/mL (≈ 10.1 µM)
- MIC [21]: > 32 µg/mL
- MIC [22]: > 32 µg/mL
- MIC [23]: > 32 µg/mL
- MIC [24]: > 32 µg/mL
- MIC [25]: > 32 µg/mL
- MIC [26]: 8 µg/mL (≈ 20.2 µM)
- MIC [27]: 16 µg/mL (≈ 40.3 µM)
- MIC [28]: > 32 µg/mL
- MIC [29]: > 32 µg/mL
- MIC [30]: 16 µg/mL (≈ 40.3 µM)
- MIC [31]: > 32 µg/mL
- MIC [32]: 8 µg/mL (≈ 20.2 µM)

Compound: CC(=O)c1c(C)[nH]c(C(c2[nH]c(C)c(C(C)=O)c2C)c2csc3ccccc23)c1C [3i]
- MIC [1]: 1 µg/mL (≈ 2.39 µM)
- MIC [2]: 1 µg/mL (≈ 2.39 µM)
- MIC [3]: 2 µg/mL (≈ 4.78 µM)
- MIC [4]: > 16 µg/mL
- MIC [5]: 8 µg/mL (≈ 19.1 µM)
- MIC [6]: 1 µg/mL (≈ 2.39 µM)
- MIC [7]: 2 µg/mL (≈ 4.78 µM)
- MIC [8]: 1 µg/mL (≈ 2.39 µM)
- MIC [9]: > 16 µg/mL
- MIC [10]: 4 µg/mL (≈ 9.56 µM)
- MIC [11]: 4 µg/mL (≈ 9.56 µM)
- MIC [12]: > 32 µg/mL
- MIC [13]: > 32 µg/mL
- MIC [14]: > 16 µg/mL
- MIC [15]: > 32 µg/mL
- MIC [16]: 4 µg/mL (≈ 9.56 µM)
- MIC [17]: 4 µg/mL (≈ 9.56 µM)
- MIC [18]: 2 µg/mL (≈ 4.78 µM)
- MIC [19]: > 32 µg/mL
- MIC [20]: 1 µg/mL (≈ 2.39 µM)
- MIC [21]: > 32 µg/mL
- MIC [22]: 8 µg/mL (≈ 19.1 µM)
- MIC [23]: > 16 µg/mL
- MIC [24]: 16 µg/mL (≈ 38.2 µM)
- MIC [25]: 8 µg/mL (≈ 19.1 µM)
- MIC [26]: 16 µg/mL (≈ 38.2 µM)
- MIC [27]: 2 µg/mL (≈ 4.78 µM)
- MIC [28]: 16 µg/mL (≈ 38.2 µM)
- MIC [29]: 8 µg/mL (≈ 19.1 µM)
- MIC [30]: 4 µg/mL (≈ 9.56 µM)
- MIC [31]: > 16 µg/mL
- MIC [32]: 1 µg/mL (≈ 2.39 µM)
